# From patent US10065950B2, “Substituted thiazoles as HIV integrase inhibitors” (Japan Tobacco Inc., priority 2010, dated 2018)
# Target: HIV-1 pNL4-3 integrase (Human immunodeficiency virus type 1 group M subtype B (isolate NY5) (HIV-1), UniProt P12497)
# Experiment: Determination of enzyme (HIV integrase) inhibitory activity
# Type: biochemical
# Conditions: calculated from inhibition rate (fluorescence)
# In short: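 Full-length pNL4-3 integrase from E. coli (0.75 μM stock) reacted 60 min at 37° C with compound and biotinylated donor DNA bound to streptavidin plates, in MOPS buffer with 5 mM MgCl2 and 10% DMSO. Digoxigenin-labelled target DNA (25 nM stock) then added for 20 min; strand transfer read by peroxidase anti-digoxigenin fluorescence (Ex 325/Em 420 nm).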
row,SMILES,IC50 [µM]
1,CC(C)N1C[C@@](C)(C(=O)N2CCCC2)n2cc(-c3nnc(Cc4ccc(F)cc4F)s3)c(=O)c(O)c2C1=O [Example 172],0.014
2,CCNC(=O)[C@@]1(C)CN(C(C)C)C(=O)c2c(O)c(=O)c(-c3nnc(Cc4ccc(F)cc4F)s3)cn21 [Example 173],0.016
3,CCNC(=O)[C@]1(C)CN(C(C)C)C(=O)c2c(O)c(=O)c(-c3nnc(Cc4ccc(F)cc4F)s3)cn21 [Example 174],0.014
4,CC(C)N1CC2(CC2)n2cc(-c3nnc(Cc4ccc(F)cc4)s3)c(=O)c(O)c2C1=O [Example 175],0.0095
5,CC(C)N1C(=O)c2c(O)c(=O)c(-c3nnc(Cc4ccc(F)cc4)s3)cn2CC12CC2 [Example 176],0.0085
6,CC(C)N1C[C@](C)(C(=O)N(C)C)n2cc(-c3nnc(Cc4ccc(F)cc4)s3)c(=O)c(O)c2C1=O [Example 177],0.017
7,CN(C)C(=O)[C@@]1(C)CN(C2CC2)C(=O)c2c(O)c(=O)c(-c3nnc(Cc4ccc(F)cc4)s3)cn21 [Example 178],0.02
8,CC(C)N1C[C@](C)(C(=O)N2CCCC2)n2cc(-c3nnc(Cc4ccc(F)cc4)s3)c(=O)c(O)c2C1=O [Example 179],0.019
9,CCNC(=O)[C@@]1(C)CN(C(C)C)C(=O)c2c(O)c(=O)c(-c3nnc(Cc4ccc(F)cc4)s3)cn21 [Example 180],0.01
10,CN(C)C(=O)[C@@]1(C)CN(C(C)(C)C)C(=O)c2c(O)c(=O)c(-c3nnc(Cc4ccc(F)cc4)s3)cn21 [Example 181],0.014
11,CC(C)N1C(=O)c2c(O)c(=O)c(-c3nnc(Cc4ccc(F)cc4)s3)cn2C[C@H]1CN(C)C(=O)C(C)(C)C [Example 182],0.0097
12,CCC(C)(C)C(=O)N(C)C[C@@H]1Cn2cc(-c3nnc(Cc4ccc(F)cc4)s3)c(=O)c(O)c2C(=O)N1C(C)C [Example 183],0.01
13,CC(C)N1C(=O)c2c(O)c(=O)c(-c3nnc(Cc4ccc(F)cc4F)s3)cn2C[C@H]1CN(C)C(=O)C(C)(C)C [Example 184],0.006
14,CNC(=O)[C@@]1(C)CN(C(C)C)C(=O)c2c(O)c(=O)c(-c3nnc(Cc4ccc(F)cc4)s3)cn21 [Example 185],0.015
15,CC(C)CNC(=O)[C@@]1(C)CN(C(C)C)C(=O)c2c(O)c(=O)c(-c3nnc(Cc4ccc(F)cc4)s3)cn21 [Example 186],0.018
16,CCNC(=O)[C@@]1(C)CN(C2CC2)C(=O)c2c(O)c(=O)c(-c3nnc(Cc4ccc(F)cc4)s3)cn21 [Example 187],0.019
17,CC(C)(C)N1C[C@](C)(C(=O)N2CCCC2)n2cc(-c3nnc(Cc4ccc(F)cc4)s3)c(=O)c(O)c2C1=O [Example 188],0.018
18,CCNC(=O)[C@@]1(C)CN(C(C)(C)C)C(=O)c2c(O)c(=O)c(-c3nnc(Cc4ccc(F)cc4)s3)cn21 [Example 189],0.02
19,CNC(=O)[C@]1(C)CN(C(C)C)C(=O)c2c(O)c(=O)c(-c3nnc(Cc4ccc(F)cc4F)s3)cn21 [Example 190],0.011
20,CNC(=O)[C@@]1(C)CN(C(C)C)C(=O)c2c(O)c(=O)c(-c3nnc(Cc4ccc(F)cc4F)s3)cn21 [Example 191],0.012
21,CC(C)N1C[C@@H](C(C)(C)C)n2cc(-c3nnc(Cc4ccc(F)cc4)s3)c(=O)c(O)c2C1=O [Example 192],0.015
22,CC(C)N1C[C@H](C(C)(C)C)n2cc(-c3nnc(Cc4ccc(F)cc4)s3)c(=O)c(O)c2C1=O [Example 193],0.011

row,SMILES,IC50 [µM]
1,CC(C)[C@H]1CN(C(C)C)C(=O)c2c(O)c(=O)c(-c3nnc(Cc4ccc(F)cc4)s3)cn21 [Example 194],0.0082
2,COC[C@@H]1Cn2cc(-c3nnc(Cc4ccc(F)cc4)s3)c(=O)c(O)c2C(=O)N1C1CCC1 [Example 195],0.0059
3,COC[C@@H]1Cn2cc(-c3nnc(Cc4ccc(F)cc4)s3)c(=O)c(O)c2C(=O)N1C1CCCC1 [Example 196],0.0067
4,CC(=O)N(C)C[C@@]1(C)CN(C(C)C)C(=O)c2c(O)c(=O)c(-c3nnc(Cc4ccc(F)cc4F)s3)cn21 [Example 197],0.014
5,COC[C@@H]1Cn2cc(-c3nnc(Cc4ccc(F)cc4)s3)c(=O)c(O)c2C(=O)N1C(C)C1CC1 (some centres unmarked) [Example 198],0.0057
6,CCN1C[C@](C)(C(=O)N(C)C)n2cc(-c3nnc(Cc4ccc(F)cc4)s3)c(=O)c(O)c2C1=O [Example 199],0.0084
7,CCN1C[C@](C)(C(=O)N2CCCC2)n2cc(-c3nnc(Cc4ccc(F)cc4)s3)c(=O)c(O)c2C1=O [Example 200],0.0096
8,CCNC(=O)[C@@]1(C)CN(CC)C(=O)c2c(O)c(=O)c(-c3nnc(Cc4ccc(F)cc4)s3)cn21 [Example 201],0.0095
9,COCCN(C)C(=O)[C@@]1(C)CN(C(C)C)C(=O)c2c(O)c(=O)c(-c3nnc(Cc4ccc(F)cc4)s3)cn21 [Example 202],0.013
10,CC(C)N1C[C@](C)(C(=O)N2CCOCC2)n2cc(-c3nnc(Cc4ccc(F)cc4)s3)c(=O)c(O)c2C1=O [Example 203],0.013
11,CC(C)N1C[C@](C)(C(=O)N2CC[C@H](O)C2)n2cc(-c3nnc(Cc4ccc(F)cc4)s3)c(=O)c(O)c2C1=O [Example 204],0.013
12,CC(C)N1C[C@](C)(C(=O)N2CC[C@@H](O)C2)n2cc(-c3nnc(Cc4ccc(F)cc4)s3)c(=O)c(O)c2C1=O [Example 205],0.013
13,COC[C@@H]1Cn2cc(-c3nnc(Cc4ccc(F)cc4)s3)c(=O)c(O)c2C(=O)N1C(C)C1CC1 (some centres unmarked) [Example 206],0.0059
14,CCC(=O)N(C)C[C@@]1(C)CN(C(C)C)C(=O)c2c(O)c(=O)c(-c3nnc(Cc4ccc(F)cc4F)s3)cn21 [Example 207],0.024
15,CC(C)N1C[C@](C)(C(=O)N2CC(O)C2)n2cc(-c3nnc(Cc4ccc(F)cc4)s3)c(=O)c(O)c2C1=O [Example 208],0.012
16,COC1CN(C(=O)[C@@]2(C)CN(C(C)C)C(=O)c3c(O)c(=O)c(-c4nnc(Cc5ccc(F)cc5)s4)cn32)C1 [Example 209],0.012
17,CC(C)N1C[C@](C)(CN(C)S(C)(=O)=O)n2cc(-c3nnc(Cc4ccc(F)cc4F)s3)c(=O)c(O)c2C1=O [Example 210],0.023
18,CO[C@@H]1CCN(C(=O)[C@@]2(C)CN(C(C)C)C(=O)c3c(O)c(=O)c(-c4nnc(Cc5ccc(F)cc5)s4)cn32)C1 [Example 211],0.016
19,CO[C@H]1CCN(C(=O)[C@@]2(C)CN(C(C)C)C(=O)c3c(O)c(=O)c(-c4nnc(Cc5ccc(F)cc5)s4)cn32)C1 [Example 212],0.014
20,CO[C@@H]1CCN(C(=O)[C@@]2(C)CN(C(C)C)C(=O)c3c(O)c(=O)c(-c4ncc(Cc5ccc(F)cc5)s4)cn32)C1 [Example 213],0.015
21,CO[C@H]1CCN(C(=O)[C@@]2(C)CN(C(C)C)C(=O)c3c(O)c(=O)c(-c4ncc(Cc5ccc(F)cc5)s4)cn32)C1 [Example 214],0.016
22,COC[C@@H]1Cn2cc(-c3ncc(Cc4ccc(F)cc4)s3)c(=O)c(O)c2C(=O)N1CC1CC1 [Example 217],0.0053

row,SMILES,IC50 [µM]
1,CCOC[C@@H]1Cn2cc(-c3ncc(Cc4ccc(F)cc4)s3)c(=O)c(O)c2C(=O)N1CC1CC1 [Example 218],0.0065
2,CCOc1cc(F)ccc1Cc1nnc(-c2cn3c(c(O)c2=O)C(=O)N(C(C)C)C[C@@H]3COC)s1 [Example 219],0.015
3,COC[C@H]1CN(C(C)C)C(=O)c2c(O)c(=O)c(-c3nnc(Cc4c(F)cc(F)cc4OC)s3)cn21 [Example 220],0.0068
4,CC(C)[C@@H]1Cn2cc(-c3nnc(Cc4ccc(F)cc4)s3)c(=O)c(O)c2C(=O)N1C(C)C [Example 221],0.0084
5,CCOC[C@@H]1Cn2cc(-c3ncc(Cc4ccc(F)cc4)s3)c(=O)c(O)c2C(=O)N1CC [Example 222],0.0065
6,CC(C)N1C[C@@](C)(C(=O)N2CCC2)n2cc(-c3ncc(Cc4ccc(F)cc4)s3)c(=O)c(O)c2C1=O [Example 223],0.012
7,CC(C)[C@H]1Cn2cc(-c3nnc(Cc4ccc(F)cc4)s3)c(=O)c(O)c2C(=O)N1C(C)C [Example 224],0.0073
8,CC(C)N1C[C@@](C)(C(=O)N2CCCC2)n2cc(-c3ncc(Cc4ccc(F)cc4)s3)c(=O)c(O)c2C1=O [Example 225],0.018
9,CCNC(=O)[C@]1(C)CN(C(C)C)C(=O)c2c(O)c(=O)c(-c3ncc(Cc4ccc(F)cc4)s3)cn21 [Example 226],0.013
10,CNC(=O)[C@]1(C)CN(C(C)C)C(=O)c2c(O)c(=O)c(-c3ncc(Cc4ccc(F)cc4)s3)cn21 [Example 227],0.013
11,COC[C@H]1CN(C(C)C)C(=O)c2c(O)c(=O)c(-c3nnc(Cc4cccc(Cl)c4)s3)cn21 [Example 228],0.011
12,COC[C@H]1CN(C(C)C)C(=O)c2c(O)c(=O)c(-c3nnc(Cc4ccc(Cl)cc4F)s3)cn21 [Example 229],0.012
13,COC[C@H]1CN(C(C)C)C(=O)c2c(O)c(=O)c(-c3nnc(Cc4ccc(F)cc4Br)s3)cn21 [Example 230],0.069
14,COC[C@H]1CN(C(C)C)C(=O)c2c(O)c(=O)c(-c3nnc(Cc4ccc(F)cc4C)s3)cn21 [Example 231],0.011
15,COC[C@@H]1[C@H](C)n2cc(-c3nnc(Cc4ccc(F)cc4)s3)c(=O)c(O)c2C(=O)N1C(C)C [Example 232],0.015
16,CC(C)N1C(=O)c2c(O)c(=O)c(-c3nnc(Cc4ccc(F)cc4)s3)cn2C[C@@H]1C [Example 233],0.0064
17,CC(C)N1C[C@@](C)(C(=O)N(C)C)n2cc(-c3ncc(Cc4ccc(F)cc4)s3)c(=O)c(O)c2C1=O [Example 234],0.018
18,COCCN(C)C(=O)[C@]1(C)CN(C(C)C)C(=O)c2c(O)c(=O)c(-c3ncc(Cc4ccc(F)cc4)s3)cn21 [Example 235],0.016
19,CC(C)N1C[C@](C)(C(=O)N2CCC2)n2cc(-c3ncc(Cc4ccc(F)cc4)s3)c(=O)c(O)c2C1=O [Example 236],0.013
20,COC1CN(C(=O)[C@@]2(C)CN(C(C)C)C(=O)c3c(O)c(=O)c(-c4ncc(Cc5ccc(F)cc5)s4)cn32)C1 [Example 237],0.013
21,COCC1CN(C(=O)[C@@]2(C)CN(C(C)C)C(=O)c3c(O)c(=O)c(-c4ncc(Cc5ccc(F)cc5)s4)cn32)C1 [Example 238],0.018
